We go through 15 compounds from US20240390340A1 (INCYTE CORPORATION, priority 2023, published 2024).

One test concerns the target KRAS G12V (Homo sapiens, UniProt P01116, G12V). Nature of the test: GDP-GTP exchange assay (bodipy-GDP/GppNHp, SOS1), KRAS G12V. The test is classed as biochemical. To be noted: KRAS G12V mutant; value for the most potent isomer quoted for certain compounds; read-out: G12V (KRAS G12V exchange assay IC50).
Another test has as its target KRAS G12D (Homo sapiens, UniProt P01116, G12D). Nature of the test: GDP-GTP exchange assay (bodipy-GDP/GppNHp, SOS1), KRAS G12D. The test is classed as biochemical. To be noted: bodipy-loaded KRAS G12D 2.5 nM, 4 h pre-incubation; value for the most potent isomer quoted for certain compounds; read-out: G12D (KRAS G12D exchange assay IC50).

What is called pIC50 is the negative decadic logarithm of the IC50, by convention in mol/L.

Molecules are shown by their SMILES. pIC50: −log10 of the molar value.

Sequence of KRAS G12D (P01116 1-188 isoform P01116-2 G12D): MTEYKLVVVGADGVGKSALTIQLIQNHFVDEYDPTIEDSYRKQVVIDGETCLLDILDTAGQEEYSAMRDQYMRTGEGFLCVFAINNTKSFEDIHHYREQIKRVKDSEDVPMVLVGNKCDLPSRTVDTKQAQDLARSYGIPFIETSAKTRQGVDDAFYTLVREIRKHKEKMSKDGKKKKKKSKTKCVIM
Sequence of KRAS G12V (P01116 1-188 isoform P01116-2 G12V): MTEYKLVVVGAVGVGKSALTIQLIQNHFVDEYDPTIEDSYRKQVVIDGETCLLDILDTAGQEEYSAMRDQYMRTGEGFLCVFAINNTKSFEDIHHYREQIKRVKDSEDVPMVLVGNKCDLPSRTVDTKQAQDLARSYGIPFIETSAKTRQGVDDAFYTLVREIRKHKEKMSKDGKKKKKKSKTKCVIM

Consider `CC(O)c1nc2c(F)c(-c3cccc(Cl)c3Cl)c(CCC#N)cc2c2c1cc([C@H]1C[C@H](OCC3(C#N)CC3)CN1C(=O)C1CC1)n2[C@H]1[C@H]2CN[C@@H]1C2` (stereo partly drawn) [Example 404], for which the pIC50 at KRAS G12V and at KRAS G12D was not below 7.00 throughout.

For the compound `N#CCCc1cc2c(nc(C3=CCOCC3)c3cc([C@H]4C[C@H](OCc5c(F)cccc5F)CN4C(=O)C4CC4)n([C@H]4[C@H]5CN[C@@H]4C5)c32)c(F)c1-c1cccc(Cl)c1Cl` [Example 218], the pIC50 at KRAS G12V and at KRAS G12D was not below 7.00 throughout.

For `Cc1nc2c(F)c(-c3cccc(Cl)c3Cl)c(CCC#N)cc2c2c1cc([C@H]1C[C@H](Oc3c(F)cc(C#N)cc3F)CN1C(=O)C1CC1)n2[C@H]1[C@H]2CN[C@@H]1C2` [Example 293], the pIC50 on KRAS G12V and on KRAS G12D was not below 7.00 each time.

For the compound `Cc1csnc1C(C)O[C@H]1C[C@H](c2cc3c(C)nc4c(F)c(-c5cccc(Cl)c5Cl)c(CCC#N)cc4c3n2[C@H]2[C@H]3CN[C@@H]2C3)N(C(=O)C2CC2)[C@@H]1C` (stereo partly drawn) [Example 254], the pIC50 at KRAS G12V and at KRAS G12D was not below 7.00 throughout.

With `CO[C@H]1CC[C@@H](O[C@H]2C[C@H](c3cc4c(C)nc5c(F)c(-c6cccc(Cl)c6Cl)c(CCC#N)cc5c4n3[C@H]3[C@H]4CN[C@@H]3C4)N(C(=O)C3CC3)C2)C1` [Example 439], the pIC50 at KRAS G12V and at KRAS G12D was not below 7.00 each time.

As for `Cc1nc2c(F)c(-c3cccc(Cl)c3Cl)c(CCC#N)cc2c2c1cc([C@H]1C[C@H](OC[C@H]3C[C@@H](C#N)C3)CN1C(=O)C1CC1)n2[C@H]1[C@H]2CN[C@@H]1C2` [Example 403], the pIC50 on KRAS G12V and on KRAS G12D was not below 7.00 each time.

For the compound `Cc1nc2c(F)c(-c3cccc(Cl)c3Cl)c(CCC#N)cc2c2c1cc([C@H]1C[C@H](n3cnc(-c4ccccc4)n3)CN1C(=O)C1CC1)n2[C@H]1[C@H]2CN[C@@H]1C2` [Example 349], the pIC50 at KRAS G12V and on KRAS G12D was not below 7.00 each time.

Take `Cc1nc2c(F)c(-c3cccc(Cl)c3Cl)c(CCC#N)cc2c2c1cc([C@H]1C[C@H](OCC3CC(F)(F)C3)CN1C(=O)C1CC1)n2[C@H]1[C@H]2CN[C@@H]1C2` [Example 445]: the pIC50 on KRAS G12V and at KRAS G12D was not below 7.00 throughout.

Turning to `Cc1nc2c(F)c(-c3cccc(Cl)c3Cl)c(CCC#N)cc2c2c1cc([C@H]1C[C@H](OCc3ccc(Cl)cc3C#N)CN1C(=O)C1CC1)n2[C@H]1[C@H]2CN[C@@H]1C2` [Example 159], the pIC50 on KRAS G12V and at KRAS G12D was not below 7.00 each time.

For the compound `Cc1nc2c(F)c(-c3cccc(Cl)c3Cl)c(CCC#N)cc2c2c1cc([C@H]1C[C@H](OCc3cnco3)CN1C(=O)C1CC1)n2[C@H]1[C@H]2CN[C@@H]1C2` [Example 258], the pIC50 on KRAS G12V and on KRAS G12D was not below 7.00 throughout.

On to `Cc1nc2c(F)c(-c3cccc(Cl)c3Cl)c(CCC#N)cc2c2c1cc([C@H]1C[C@H](OCc3nsc4ccccc34)CN1C(=O)C1CC1)n2[C@H]1[C@H]2CN[C@@H]1C2` [Example 255], for which the pIC50 at KRAS G12V and on KRAS G12D was not below 7.00 each time.

With `Cc1nc2c(F)c(-c3cccc(Cl)c3Cl)c(CCC#N)cc2c2c1cc([C@H]1C[C@H](n3cc([C@]45C[C@H](CN4)C5)nn3)CN1C(=O)C1CC1)n2[C@H]1[C@H]2CN[C@@H]1C2` [Example 274], the pIC50 at KRAS G12V and at KRAS G12D was not below 7.00 each time.

As for `Cc1nc2c(F)c(-c3cccc(Cl)c3Cl)c(CCC#N)cc2c2c1cc([C@H]1C[C@H](Oc3cnn4ccccc34)CN1C(=O)C1CC1)n2[C@H]1[C@H]2CN[C@@H]1C2` [Example 194], the pIC50 on KRAS G12V and at KRAS G12D was not below 7.00 throughout.

For the compound `Cc1nc2c(F)c(-c3cccc(Cl)c3Cl)c(CCC#N)cc2c2c1cc([C@H]1C[C@H](OC3CC3C)CN1C(=O)C1CC1)n2[C@H]1[C@H]2CN[C@@H]1C2` (stereo partly drawn) [Example 379], the pIC50 on KRAS G12V and on KRAS G12D was not below 7.00 each time.

For the compound `Cc1nc2c(F)c(-c3cccc(Cl)c3Cl)c(CCC#N)cc2c2c1cc([C@H]1C[C@H](Oc3ccnc(C4CCC4)c3)CN1C(=O)C1CC1)n2[C@H]1[C@H]2CN[C@@H]1C2` [Example 421], the negative-log IC50 (pIC50) at KRAS G12V and on KRAS G12D was not below 7.00 each time.
